Reference: US20060069132A1, “Azolecarboxamide herbicides” (priority 2004, published 2006)

Columns and labels:
rice [1] = assay: Test B flooded paddy test; assay type: in vivo, Oryza sativa; conditions: 1000 g ai/ha, visual rating, scale 0 to 100 (0 no effect, 100 complete control), 13 to 15 days
In short: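 After treating 2-leaf paddy plants or 2–18 cm postemergence plants (1 to 4 leaves) with formulated chemical, researchers kept them in a greenhouse for 13–15 days. Effects were judged visually versus controls: 0 indicates none, 100 total control.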

lambsquarters = assay: Test B pre-/postemergence herbicide test; assay type: in vivo, Chenopodium album; conditions: for Lambsquarters plant response rating: postemergence
In short: (§1)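 Flooded paddy rice and barnyardgrass were treated at the 2-leaf stage; upland plantings received compound either on sown seed or on 1- to 4-leaf seedlings. All were kept 13–15 days in a greenhouse and scored visually, 0–100, relative to untreated plants.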

rice [2] = assay: Test B pre-/postemergence herbicide test; assay type: in vivo, Oryza sativa; conditions: preemergence, 125 g ai/ha; 0 to 100 scale, 0 is no effect, 100 is complete control
In short: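 Evaluation is visual, comparing treated with control plants on a scale where 0 means no effect and 100 means full control. Treatments were preemergence, or postemergence on seedlings 2–18 cm tall, and held 13–15 days in the greenhouse.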

ducksalad [3] = assay: Test C flooded paddy test; assay type: in vivo, Heteranthera limosa; conditions: for Plant response rating, Ducksalad: visual rating after 12 to 14 days
Surinam grass = assay: Test B pre-/postemergence herbicide test; assay type: in vivo, Urochloa decumbens; conditions: for Surinam Grass plant response rating: postemergence
In short: as §1

barnyardgrass [4] = assay: Test C flooded paddy test; assay type: in vivo, Echinochloa crus-galli; conditions: for Plant response rating, Barnyardgrass: visual rating after 12 to 14 days
In short: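 Ratings (0 = no effect, 100 = complete control) come from visual comparison with untreated plants after 12 to 14 days in the greenhouse. Treatment was postemergence at the 1- to 4-leaf stage (2–18 cm), or at the 2-leaf stage for the flooded paddy barnyardgrass.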

cocklebur = assay: Test B pre-/postemergence herbicide test; assay type: in vivo, Xanthium strumarium; conditions: for Cocklebur plant response rating: postemergence
In short: (§2)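 Formulation: non-phytotoxic solvent mix with surfactant. Timing: preemergence on seed and postemergence on 2–18 cm plants, applied concurrently. Readout after 13–15 d greenhouse: visual 0–100 control rating against controls.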

velvetleaf = assay: Test B pre-/postemergence herbicide test; assay type: in vivo, Abutilon theophrasti; conditions: for Velvetleaf plant response rating: postemergence
In short: as §1

corn = assay: Test B pre-/postemergence herbicide test; assay type: in vivo, Zea mays; conditions: for Corn plant response rating: postemergence
In short: as §1

pigweed = assay: Test B pre-/postemergence herbicide test; assay type: in vivo, Amaranthus retroflexus; conditions: for Pigweed plant response rating: postemergence
In short: as §1

morningglory = assay: Test B pre-/postemergence herbicide test; assay type: in vivo, Ipomoea coccinea; conditions: for Morningglory plant response rating: postemergence
In short: as §2

ducksalad [5] = assay: Test B flooded paddy test; assay type: in vivo, Heteranthera limosa; conditions: 1000 g ai/ha, visual rating, scale 0 to 100 (0 no effect, 100 complete control), 13 to 15 days
In short: (§3)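 Scale 0–100: zero equals no visible effect, 100 complete control, judged by eye relative to controls. Timing: 13 to 15 days in greenhouse post-treatment. Growth stage at spraying: two leaves (paddy) or one to four leaves, 2–18 cm (postemergence).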

barnyardgrass [6] = assay: Test B flooded paddy test; assay type: in vivo, Echinochloa crus-galli; conditions: 1000 g ai/ha, visual rating, scale 0 to 100 (0 no effect, 100 complete control), 13 to 15 days
In short: as §3

[7] = tested on: smallflower umbrella sedge; assay: Test C flooded paddy test; assay type: in vivo, Cyperus difformis; conditions: for Plant response rating, Sedge, Umbrella: visual rating after 12 to 14 days
[8] = tested on: small flower umbrella sedge; assay: Test B flooded paddy test; assay type: in vivo, Cyperus difformis; conditions: 1000 g ai/ha, visual rating, scale 0 to 100 (0 no effect, 100 complete control), 13 to 15 days
In short: as §3

rice [9] = assay: Test C flooded paddy test; assay type: in vivo, Oryza sativa; conditions: for Plant response rating, Rice: visual rating after 12 to 14 days
In short: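 Injury scored visually against controls on a 0 (no effect) to 100 (complete control) scale, 12 to 14 days after treatment in greenhouse. Flooded paddy plants treated at 2-leaf stage; postemergence plants at 1- to 4-leaf stage, 2 to 18 cm tall.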

wild oat = assay: Test B postemergence herbicide test; assay type: in vivo, Avena fatua; conditions: postemergence
In short: (§4)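 Each value is a visual 0–100 response rating taken against controls 13 to 15 days after treatment in the greenhouse. Plants received formulated chemical postemergence at the 1- to 4-leaf stage or, in flooded paddy, at the 2-leaf stage.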

blackgrass = assay: Test B postemergence herbicide test; assay type: in vivo, Alopecurus myosuroides; conditions: postemergence
In short: as §3

barnyardgrass [10] = assay: Test B pre-/postemergence herbicide test; assay type: in vivo, Echinochloa crus-galli; conditions: for Barnyardgrass plant response rating: postemergence
In short: as §2

giant foxtail = assay: Test B pre-/postemergence herbicide test; assay type: in vivo, Setaria faberi; conditions: for Foxtail, Giant plant response rating: postemergence
In short: as §1

wheat = assay: Test B postemergence herbicide test; assay type: in vivo, Triticum aestivum; parameters: key to Wheat plant response rating: 0 = no effect, 100 = complete control; conditions: postemergence
In short: as §4

large crabgrass = assay: Test B pre-/postemergence herbicide test; assay type: in vivo, Digitaria sanguinalis; conditions: for Crabgrass, Large plant response rating: postemergence
In short: as §1

[11] = 125 g ai/ha, visual rating, scale 0 (no effect) to 100 (complete control)
[12] = preemergence, 125 g ai/ha, 0 to 100 scale, 0 is no effect, 100 is complete control
[13] = 62 g ai/ha, scale 0 to 100 (0 no effect, 100 complete control)
[14] = 125 g ai/ha, scale of 0 to 100, 0 is no effect, 100 is complete control
[15] = 250 g ai/ha, scale 0 to 100 (0 no effect, 100 complete control)
[16] = 500 g ai/ha, scale 0 to 100 (0 no effect, 100 complete control)

CCn1nc(C(C)(C)C)cc1C(=O)Nc1cccc(C(=O)N(C)C)c1 [Compound 49]
Rice plant response rating (rice [1]): 30 | Lambsquarters plant response rating (lambsquarters; [11]): 50 | Lambsquarters plant response rating (lambsquarters; 31 g ai/ha, scale 0 to 100): 20 | Plant response rating, Lambsquarters (lambsquarters; [12]): 70 | Plant response rating, Rice (rice [2]): 40 | Ducksalad plant response rating (ducksalad [3]; [13]): 0 | Ducksalad plant response rating (ducksalad [3]; [14]): 50 | Plant response rating, Ducksalad (ducksalad [3]; [15]): 80 | Plant response rating, Ducksalad (ducksalad [3]; [16]): 80 | Surinam Grass plant response rating (Surinam grass; [11]): 10 | Surinam Grass plant response rating (Surinam grass; 31 g ai/ha, scale 0 to 100): 10 | Plant response rating, Surinam Grass (Surinam grass; [12]): 10 | Barnyardgrass plant response rating (barnyardgrass [4]; [13]): 45 | Barnyardgrass plant response rating (barnyardgrass [4]; [14]): 60 | Plant response rating, Barnyardgrass (barnyardgrass [4]; [15]): 70 | Plant response rating, Barnyardgrass (barnyardgrass [4]; [16]): 80 | Cocklebur plant response rating (cocklebur; [11]): 20 | Cocklebur plant response rating (cocklebur; 31 g ai/ha, scale 0 to 100): 10 | Plant response rating, Cocklebur (cocklebur; [12]): 0 | Velvetleaf plant response rating (velvetleaf; [11]): 30 | Velvetleaf plant response rating (velvetleaf; 31 g ai/ha, scale 0 to 100): 10 | Plant response rating, Velvetleaf (velvetleaf; [12]): 0 | Corn plant response rating (corn; [11]): 20 | Corn plant response rating (corn; 31 g ai/ha, scale 0 to 100): 10 | Plant response rating, Corn (corn; [12]): 0 | Pigweed plant response rating (pigweed; [11]): 30 | Pigweed plant response rating (pigweed; 31 g ai/ha, scale 0 to 100): 10 | Plant response rating, Pigweed (pigweed; [12]): 90 | Morningglory plant response rating (morningglory; [11]): 0 | Morningglory plant response rating (morningglory; 31 g ai/ha, scale 0 to 100): 0 | Plant response rating, Morningglory (morningglory; [12]): 0 | Ducksalad plant response rating (ducksalad [5]): 80 | Barnyardgrass plant response rating (barnyardgrass [6]): 70 | Sedge, Umbrella plant response rating [7, 13]: 45 | Sedge, Umbrella plant response rating [7, 14]: 45 | Plant response rating, Sedge, Umbrella [7, 15]: 80 | Plant response rating, Sedge, Umbrella [7, 16]: 80 | Sedge, Umbrella plant response rating [8]: 80 | Rice plant response rating (rice [9]; [13]): 15 | Rice plant response rating (rice [9]; [14]): 25 | Plant response rating, Rice (rice [9]; [15]): 70 | Plant response rating, Rice (rice [9]; [16]): 90 | Oat, Wild plant response rating (wild oat; [11]): 10 | Oat, Wild plant response rating (wild oat; 31 g ai/ha, scale 0 to 100): 0 | Blackgrass plant response rating (blackgrass; [11]): 0 | Blackgrass plant response rating (blackgrass; 31 g ai/ha, scale 0 to 100): 0 | Barnyardgrass plant response rating (barnyardgrass [10]; [11]): 30 | Barnyardgrass plant response rating (barnyardgrass [10]; 31 g ai/ha, scale 0 to 100): 10 | Plant response rating, Barnyardgrass (barnyardgrass [10]; [12]): 30 | Foxtail, Giant plant response rating (giant foxtail; [11]): 10 | Foxtail, Giant plant response rating (giant foxtail; 31 g ai/ha, scale 0 to 100): 0 | Plant response rating, Foxtail, Giant (giant foxtail; [12]): 0 | Wheat plant response rating (wheat; [11]): 0 | Wheat plant response rating (wheat; 31 g ai/ha, scale 0 to 100): 0 | Crabgrass, Large plant response rating (large crabgrass; [11]): 10 | Crabgrass, Large plant response rating (large crabgrass; 31 g ai/ha, scale 0 to 100): 10 | Plant response rating, Crabgrass, Large (large crabgrass; [12]): 20
